Assay: Henry solubility constant Hcp at 310 K (mol/(m3 Pa))
Conditions: reference: van Ruth et al. (2002)

Structure (SMILES) | Henry solubility constant Hcp at 310 K
CCCO [1-propanol] | 0.32
CCCC(=O)OCC [ethyl butanoate] | 0.021
CCCOC(C)=O [propyl ethanoate] | 0.039
CCCCOC(C)=O [butyl ethanoate] | 0.028
CCCC(C)O (stereo not given) [2-pentanol] | 0.3
CCOC(C)=O [ethyl ethanoate] | 0.039
CSC [dimethyl sulfide] | 0.0064
CC(C)CCO [3-methyl-1-butanol] | 0.33

More lines, now with the values ahead:

Henry solubility constant Hcp at 310 K | Structure (SMILES)
0.065 | CCCCCCCC(C)O (stereo not given) [2-nonanol]
0.039 | CCCCCC(C)=O [2-heptanone]
0.018 | CCCCCCCCC(C)=O [2-decanone]
0.02 | CCCCCCC=O [heptanal]
0.029 | CCCCCCC(C)=O [2-octanone]
0.25 | CCCCCCO [1-hexanol]
0.021 | CCCCCCCC=O [octanal]
